Test results taken from patent publication US9738655B2, “Tetrahydroisoquinolines containing substituted azoles as factor XIa inhibitors” (BRISTOL-MYERS SQUIBB COMPANY, priority 2013, dated 2017).
Counter-ions that a name gives are not always drawn. Like-named read-outs stand apart in the source and are kept apart here.

How the values were obtained:
[1] = molecular target: purified human plasma kallikrein (Homo sapiens (Human), UniProt P03952); test: Plasma kallikrein enzyme inhibition assay (chromogenic substrate S-2302); assay type: biochemical
[2] = molecular target: purified human Factor XIa (Homo sapiens (Human), UniProt P03951); test: Factor XIa enzyme inhibition assay (chromogenic substrate S-2366)
[3] = measured at 25° C. (no asterisk)
[4] = read-out: Factor XIa Ki, measured at 25° C.

purified human plasma kallikrein, sequence (P03952 391-638): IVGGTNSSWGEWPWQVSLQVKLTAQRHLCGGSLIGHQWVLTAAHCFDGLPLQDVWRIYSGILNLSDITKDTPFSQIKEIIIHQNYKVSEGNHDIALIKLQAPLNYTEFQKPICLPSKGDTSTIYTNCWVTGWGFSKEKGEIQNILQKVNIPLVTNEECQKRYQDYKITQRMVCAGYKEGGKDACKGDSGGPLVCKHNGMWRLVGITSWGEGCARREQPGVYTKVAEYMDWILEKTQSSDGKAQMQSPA
purified human plasma kallikrein, sequence (P03952 20-390 partner): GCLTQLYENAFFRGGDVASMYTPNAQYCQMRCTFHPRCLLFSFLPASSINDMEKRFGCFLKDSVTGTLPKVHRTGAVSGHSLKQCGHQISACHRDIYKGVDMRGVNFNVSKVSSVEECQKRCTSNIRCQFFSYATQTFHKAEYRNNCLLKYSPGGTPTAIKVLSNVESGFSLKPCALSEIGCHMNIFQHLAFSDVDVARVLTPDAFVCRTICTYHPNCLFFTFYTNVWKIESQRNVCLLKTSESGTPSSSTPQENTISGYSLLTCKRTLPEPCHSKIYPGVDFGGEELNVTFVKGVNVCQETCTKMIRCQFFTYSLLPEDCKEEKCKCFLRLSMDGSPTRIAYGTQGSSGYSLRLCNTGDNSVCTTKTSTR
purified human Factor XIa, sequence (P03951 388-625): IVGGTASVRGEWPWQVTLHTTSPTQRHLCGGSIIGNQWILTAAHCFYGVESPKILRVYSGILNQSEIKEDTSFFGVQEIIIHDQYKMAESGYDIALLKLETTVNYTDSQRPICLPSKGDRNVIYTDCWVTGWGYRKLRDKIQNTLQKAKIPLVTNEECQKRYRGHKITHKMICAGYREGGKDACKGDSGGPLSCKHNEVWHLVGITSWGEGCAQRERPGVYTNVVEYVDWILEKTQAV
purified human Factor XIa, sequence (P03951 19-387 partner): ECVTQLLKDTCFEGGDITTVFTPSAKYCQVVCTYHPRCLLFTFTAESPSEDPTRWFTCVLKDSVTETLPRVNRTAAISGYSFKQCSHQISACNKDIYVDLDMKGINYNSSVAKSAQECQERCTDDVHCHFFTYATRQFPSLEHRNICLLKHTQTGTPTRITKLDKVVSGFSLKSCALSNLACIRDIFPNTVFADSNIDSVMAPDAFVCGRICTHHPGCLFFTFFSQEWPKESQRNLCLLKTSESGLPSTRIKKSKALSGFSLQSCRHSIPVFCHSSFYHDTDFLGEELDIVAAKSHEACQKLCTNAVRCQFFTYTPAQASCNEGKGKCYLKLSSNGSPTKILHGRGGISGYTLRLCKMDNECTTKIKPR

SMILES | Ki [1, 3] [nM] | Ki [2, 4] [nM] | Ki ([1]; measured at 37° C. (*)) [nM] | Ki [2] [nM] | Ki ([2]; read-out: Factor XIa Ki) [nM]
CC(C)c1nnc2n1CCN(c1cccc3c1CCN(C(=O)c1cn(-c4cccc(Cl)c4F)nn1)C3C(=O)Nc1ccc(C(=O)O)cc1)C2 (stereo not drawn) [Example 64, 4-(2-(1-(3-chloro-2-fluorophenyl)-1H-1,2,3-triazole-4-carbonyl)-5-(3-isopropyl-5,6-dihydro-[1,2,4]triazolo[4,3-a]pyrazin-7(8H)-yl)-1,2,3,4-tetrahydroisoquinoline-1-carboxamido)benzoic acid, TFA salt] | 4.7 | < 5 | – | – | –
COC1CCN(c2cccc3c2CCN(C(=O)c2cn(-c4cccc(Cl)c4F)nn2)[C@@H]3C(=O)Nc2ccc(CO)cc2)CC1 [Example 122, (S)-2-(1-(3-Chloro-2-fluorophenyl)-1H-1,2,3-triazole-4-carbonyl)-N-(4-(hydroxymethyl)phenyl)-5-(4-methoxypiperidin-1-yl)-1,2,3,4-tetrahydroisoquinoline-1-carboxamide] | – | 16.8 | 99.8 | – | –
CN1CCN(c2cccc3c2CCN(C(=O)c2cn(-c4cccc(Cl)c4F)nn2)[C@H]3C(=O)Nc2ccc(C(=O)O)cc2)C(=O)C1 [Example 79, (R)-4-(2-(1-(3-chloro-2-fluorophenyl)-1H-1,2,3-triazole-4-carbonyl)-5-(4-methyl-2-oxopiperazin-1-yl)-1,2,3,4-tetrahydroisoquinoline-1-carboxamido)benzoic acid, TFA salt] | 719 | 114 | – | – | –
CN(C)C1CCN(c2cccc3c2CCN(C(=O)c2cn(-c4cccc(Cl)c4F)cn2)[C@@H]3C(=O)Nc2ccc(C(=O)O)cc2)CC1 (single isomer, unassigned) [Example 55, bis-TFA salt] | 0.92 | < 5 | – | – | –
N#Cc1ccc(-c2cccc3c2CCN(C(=O)c2cn(-c4cccc(Cl)c4F)nn2)[C@@H]3C(=O)Nc2ccc(C(=O)O)cc2)cn1 [Example 16, (S)-4-(2-(1-(3-Chloro-2-fluorophenyl)-1H-1,2,3-triazole-4-carbonyl)-5-(6-cyanopyridin-3-yl)-1,2,3,4-tetrahydroisoquinoline-1-carboxamido)benzoic acid, TFA salt] | 4.55 | < 5 | – | – | –
O=C(Nc1cccc2c1CCN(C(=O)c1cn(-c3cccc(Cl)c3F)nn1)C2C(=O)Nc1ccc(C(=O)O)cc1)NC1CCCC1 (stereo not drawn) [Example 193, 4-(2-(1-(3-Chloro-2-fluorophenyl)-1H-1,2,3-triazole-4-carbonyl)-5-(3-cyclopentylureido)-1,2,3,4-tetrahydroisoquinoline-1-carboxamido)benzoic acid] | 2.34 | 19.9 | – | – | –
CN1CCC2(CCN(c3cccc4c3CCN(C(=O)c3cn(-c5cccc(Cl)c5F)nn3)C4C(=O)Nc3ccc(C(=O)O)cc3)CC2)C1=O (stereo not drawn) [Example 106, 4-(2-(1-(3-Chloro-2-fluorophenyl)-1H-1,2,3-triazole-4-carbonyl)-5-(2-methyl-1-oxo-2,8-diazaspiro[4.5]decan-8-yl)-1,2,3,4-tetrahydroisoquinoline-1-carboxamido)benzoic acid, TFA salt] | 7.58 | < 5 | – | – | –
O=C(O)c1ccc(NC(=O)[C@@H]2c3cccc(N4CCOCC4)c3CCN2C(=O)c2cn(-c3cccc(Cl)c3F)cn2)cc1 [Example 91, (S)-4-(2-(1-(3-Chloro-2-fluorophenyl)-1H-imidazole-4-carbonyl)-5-morpholino-1,2,3,4-tetrahydroisoquinoline-1-carboxamido)benzoic acid, TFA salt] | 3.84 | < 5 | – | – | –
COC(=O)c1ccc(NC(=O)[C@@H]2c3cccc(N4CCN(C5COC5)CC4)c3CCN2C(=O)[C@H]2CC(c3cccc(Cl)c3F)=NO2)cc1 [Example 232, Methyl 4-((S)-2-((R)-3-(3-chloro-2-fluorophenyl)-4,5-dihydroisoxazole-5-carbonyl)-5-(4-(oxetan-3-yl)piperazin-1-yl)-1,2,3,4-tetrahydroisoquinoline-1-carboxamido)benzoate, 2 TFA salt] | – | 4130 | 29.7 | – | –
COC1CCN(c2cccc3c2CCN(C(=O)c2cn(-c4cccc(Cl)c4F)nn2)C3C(=O)Nc2ccccc2)CC1 (stereo not drawn) [Example 118, 2-(1-(3-Chloro-2-fluorophenyl)-1H-1,2,3-triazole-4-carbonyl)-5-(4-methoxypiperidin-1-yl)-N-phenyl-1,2,3,4-tetrahydroisoquinoline-1-carboxamide, TFA salt] | – | 38 | 250 | – | –
CN(C)C(=O)C1CCN(c2cccc3c2CCN(C(=O)c2cn(-c4cccc(Cl)c4F)cn2)[C@@H]3C(=O)Nc2ccc(C(=O)O)cc2)CC1 (single isomer, unassigned) [Example 63, TFA salt] | 2.71 | < 5 | – | – | –
CN(C)C(=O)C1CCN(c2cccc3c2CCN(C(=O)c2cnn(-c4cccc(Cl)c4F)c2)[C@@H]3C(=O)Nc2ccc(C(=O)O)cc2)CC1 (single isomer, unassigned) [Example 61, TFA salt] | 5.89 | < 5 | – | – | –
CN(C)C1CCN(c2cccc3c2CCN(C(=O)c2cn(-c4cccc(Cl)c4F)nn2)C3C(=O)Nc2ccc(C(N)=O)cc2)CC1 (stereo not drawn) [Example 99, N-(4-Carbamoylphenyl)-2-(1-(3-chloro-2-fluorophenyl)-1H-1,2,3-triazole-4-carbonyl)-5-(4-(dimethylamino)piperidin-1-yl)-1,2,3,4-tetrahydroisoquinoline-1-carboxamide, bis-TFA salt] | 2.74 | < 5 | – | – | –
CNC(=O)c1ccc(-c2cccc3c2CCN(C(=O)c2cn(-c4cccc(Cl)c4F)nn2)[C@H]3C(=O)Nc2ccc(C(=O)O)cc2)cn1 [Example 45, (R)-4-(2-(1-(3-Chloro-2-fluorophenyl)-1H-1,2,3-triazole-4-carbonyl)-5-(6-(methylcarbamoyl)pyridin-3-yl)-1,2,3,4-tetrahydroisoquinoline-1-carboxamido)benzoic acid, TFA salt] | 364 | 20.6 | – | – | –
N#Cc1ccc(-c2cccc3c2CCN(C(=O)c2cn(-c4cccc(Cl)c4F)nn2)[C@H]3C(=O)Nc2ccc(C(=O)O)cc2)cn1 [Example 15, (R)-4-(2-(1-(3-Chloro-2-fluorophenyl)-1H-1,2,3-triazole-4-carbonyl)-5-(6-cyanopyridin-3-yl)-1,2,3,4-tetrahydroisoquinoline-1-carboxamido)benzoic acid, TFA salt] | 219 | 9.12 | – | – | –
O=C(O)c1ccc(NC(=O)C2c3cccc(-c4cn[nH]c4)c3CCN2C(=O)c2cn(-c3cccc(Cl)c3F)nn2)cc1 (stereo not drawn) [Example 41, 4-(2-(1-(3-chloro-2-fluorophenyl)-1H-1,2,3-triazole-4-carbonyl)-5-(1H-pyrazol-4-yl)-1,2,3,4-tetrahydroisoquinoline-1-carboxamido)benzoic acid] | 7.68 | – | – | < 5 | –
NCc1cccc2c1CCN(C(=O)c1cn(-c3cccc(Cl)c3F)nn1)C2C(=O)Nc1ccc(C(=O)O)cc1 (stereo not drawn) [Example 109, 4-(5-(Aminomethyl)-2-(1-(3-chloro-2-fluorophenyl)-1H-1,2,3-triazole-4-carbonyl)-1,2,3,4-tetrahydroisoquinoline-1-carboxamido)benzoic acid, TFA salt] | 2.29 | 14.5 | – | – | –
Nc1ccc(-c2cccc3c2CCN(C(=O)c2cn(-c4cccc(Cl)c4F)nn2)C3C(=O)Nc2ccc(C(=O)O)cc2)cn1 (stereo not drawn) [Example 39, 4-(5-(6-aminopyridin-3-yl)-2-(1-(3-chloro-2-fluorophenyl)-1H-1,2,3-triazole-4-carbonyl)-1,2,3,4-tetrahydroisoquinoline-1-carboxamido)benzoic acid, bis-TFA salt] | 2.63 | < 5 | – | – | –
Cc1ncn(-c2cccc3c2CCN(C(=O)[C@H]2CC(c4cccc(Cl)c4F)=NO2)[C@@H]3C(=O)Nc2ccc(C(=O)O)cc2)n1 [Example 250, 4-((S)-2-((R)-3-(3-Chloro-2-fluorophenyl)-4,5-dihydroisoxazole-5-carbonyl)-5-(3-methyl-1H-1,2,4-triazol-1-yl)-1,2,3,4-tetrahydroisoquinoline-1-carboxamido)benzoic acid, TFA salt] | – | < 5 | 6.8 | – | –
CN(C)CCNC(=O)c1ccc(-c2cccc3c2CCN(C(=O)c2cn(-c4cccc(Cl)c4F)nn2)[C@H]3C(=O)Nc2ccc(C(=O)O)cc2)cc1 [Example 11, (R)-4-(2-(1-(3-Chloro-2-fluorophenyl)-1H-1,2,3-triazole-4-carbonyl)-5-(4-((2-(dimethylamino)ethyl)carbamoyl)phenyl)-1,2,3,4-tetrahydroisoquinoline-1-carboxamido)benzoic acid TFA salt] | 1060 | – | – | – | 165
COc1cccc2c1CCN(C(=O)c1cn(-c3cccc(Cl)c3F)nn1)C2C(=O)Nc1ccc(C(=O)O)cc1 (racemic) [Example 275, 4-(2-(1-(3-chloro-2-fluoroplienyl)-1H-1,2,3-triazole-4-carbonyl)-5-methoxy-1,2,3,4-tetrahydroisoquinoline-1-carboxamido)benzoic acid, TFA salt] | 11.8 | – | – | 10.7 | –
COC1CCN(c2cccc3c2CCN(C(=O)c2cn(-c4cccc(Cl)c4F)nn2)C3C(=O)Nc2ccc3c(c2)CCC(=O)N3C)CC1 (stereo not drawn) [Example 189, 2-(1-(3-Chloro-2-fluorophenyl)-1H-1,2,3-triazole-4-carbonyl)-5-(4-methoxypiperidin-1-yl)-N-(1-methyl-2-oxo-1,2,3,4-tetrahydroquinolin-6-yl)-1,2,3,4-tetrahydroisoquinoline-1-carboxamide, TFA salt] | 540 | 411 | – | – | –
COC1CCN(c2cccc3c2CCN(C(=O)c2cn(-c4cccc(Cl)c4F)nn2)C3C(=O)Nc2ccc(-c3ncc[nH]3)cc2)CC1 (stereo not drawn) [Example 141, N-(4-(1H-Imidazol-2-yl)phenyl)-2-(1-(3-chloro-2-fluorophenyl)-1H-1,2,3-triazole-4-carbonyl)-5-(4-methoxypiperidin-1-yl)-1,2,3,4-tetrahydroisoquinoline-1-carboxamide, 2 TFA] | – | 5.95 | 161 | – | –
Nc1ncc(-c2cccc3c2CCN(C(=O)c2cn(-c4cccc(Cl)c4F)nn2)C3C(=O)Nc2ccc(C(=O)O)cc2)cn1 (stereo not drawn) [Example 30, 4-(5-(2-aminopyrimidin-5-yl)-2-(1-(3-chloro-2-fluorophenyl)-1H-1,2,3-triazole-4-carbonyl)-1,2,3,4-tetrahydroisoquinoline-1-carboxamido)benzoic acid, TFA salt] | 15.7 | < 5 | – | – | –
